This note sets out measurements from US20240285631A1, “METHODS OF TREATING VASCULAR MALFORMATIONS” (priority 2023, published 2024).

For test [1], the system named is human umbilical vein endothelial cells. Kind of test: Proliferation of human umbilical vein endothelial cells assessed by EdU uptake. The format is cell-based. Particulars: in vitro, dose response. An excerpt: FIG. 16 illustrates palbociclib, CVT-313 and ribociclib dose response effects on proliferation of human umbilical vein endothelial cells assessed by EdU uptake.
This example discusses that endothelial cell cycle dysregulation is a mechanism involved in the development of arterio-venous malformations in HHT, as well as other types of vascular malformations named above. Palbociclib, a FDA-approved cell cycle inhibitor, could be used to prevent arterio-venous and other malformations, including venous, capillary, lymphatic and cerebral cavernous malformations.

In a further test the test system is VEGF-A signaling. Kind of test: VEGF-A-induced AKT phosphorylation in Alk1 siRNA-silenced HUVECs. The format is cell-based, human. Particulars: treated or not with Palbociclib. An excerpt:
Next, we treated HUVECs with Alk1 siRNA to silence Alk1 and test the VEGF-A-induced response, with or without Palbociclib treatment, using pAKT activation as a readout.

For test [2], the system named is vascular malformations in Alk1EC^iKO pups. Kind of test: Retinal vasculature analysis in Alk1EC^iKO pups (HHT type 2 model). It is filed as in vivo, mouse. An excerpt:
FIG. 5A illustrates a timeline used for tamoxifen (Tx) injection and CDK4/6i treatment of Alk1EC^iKO pups. FIG. 5B illustrates representative images showing retinal vasculature labelled with IB4 from control, Alk1EC^iKO, and Alk1EC^iKO+CDK4/6i-treated P5 animals. Bar graphs showing (FIG. 5C) quantification of AV shunt number per retina, (FIG. 5D) vascular density, and (FIG. 5E) vascular progression. (N=8 to 10 retinas/group, at least 4 mice). Data are mean±SEM, One-way ANOVA, *p≤0.05, **p≤0.01). FIG. 5F illustrates a timeline used for Tx injection and CDK4/6i treatment of Alk1EC^iKO pups for blue latex dye perfusion experiments. FIG. 5G illustrates blue latex dye vascular perfusion in brains from control, Alk1EC^iKO, and Alk1EC^iKO+CDK4/6i-treated P7 animals. […] FIG. 5H illustrates the quantification of left middle cerebral artery (MCA) and basilar artery (BA) in control, Alk1EC^iKO, and Alk1EC^iKO+CDK4/6i-treated animals. FIG. 5I illustrates the quantification of the number of latex filled veins in control, Alk1EC^iKO, and Alk1EC^iKO+CDK4/6i-treated animals. (N=4 to 6 mice/group. Data are mean±SEM, one-way ANOVA with Holm-Šidàk's multiple comparison test, *p≤0.05, **p≤0.01, ***p<0.001). Scale bar (G): 4 mm.
About 50% of HHT patients harbor mutations in the Acvrl1 gene^1, which encodes for the ALK1 receptor. To validate the clinical relevance of the use of Palbociclib for the treatment of HHT, we crossed Cdh5Cre^ERT2 mice with Alk1^flox/flox mice (6-8-week-old) to generate an endothelial-specific inducible deletion of Alk1 (referred to as Alk1EC^iKO), which is an established preclinical mouse model of human HHT type 2^12,25. Neonatal Alk1EC^iKO pups received a single i.p. injection of tamoxifen at P3 to induce Alk1 gene deletion and were then treated with Palbociclib via oral gavage at P4, and their retinal vasculature was analyzed at P5 (FIG. 5A). […] Due to the relatively short survival time post-tamoxifen induction in Alk1EC^iKO mice (approximately 48 hours), our study is limited to a single Palbociclib injection, which represents a technical challenge in exploring additional treatments. […] Single Cell RNA sequencing analysis of Palbociclib effects on endothelial arteriovenous identity in Alk1EC^iKO mice.
With bulk RNAseq analysis, we further investigated the effects of Palbociclib on these pathways in vivo on P7 retinal ECs from control pups or those treated with anti-BMP9/10, with or without CDK4/6i, as outlined in FIG. 2A. […] We also investigated the potential role of FLT1, a decoy receptor for VEFG-A, in the mechanism of action of Palbociclib, by injecting i.p. FLT1 blocking antibodies in Alk1EC^iKO mice simultaneously with CDK4/6i treatment (FIG. 8G).
All animal protocols and procedures were approved by the University of Virginia Animal Care and Use Committee and complied with all ethical regulations. Cdh5Cre^ERT21Rha^43 and Alk1^flox/flox were gifted from Drs. Ralf Adams and Paul Oh, respectively. R26p-Fucci2 (Fucci2) (Accession #CDB0203T)^44 and C57bl/6 mice were purchased from Riken and Jax, respectively. Cdh5Cre^ERT2 mice were crossed with Alk1^flox/flox mice (6-8-week-old) to generate Alk1EC^iKO pups. Cre activity in Alk1EC^iKO was induced in pups at P3 via a single intraperitoneal (i.p.) injection of Tamoxifen (Tx; Sigma T5648, […] of 4 mg/ml, resuspended in 10% ethanol and 90% corn oil). Alk1^flox/flox littermates were used as controls. Alk1EC^iKO mice were crossed with Fucci2 mice to generate Alk1EC^iKO-Fucci2 pups.

The subject of test [3] is Retinoblastoma protein (Rb). Nature of the test: Western Blot of Rb Ser 807/811 phosphorylation in HUVECs. It is filed as cell-based, human. The settings on record: 24 h.
Method: FIG. 11B illustrates Western Blot analysis of Rb Ser 807/811 phosphorylation in response to Palbociclib (CDK4/6i) (24 h) in HUVECs.
Primary Human Umbilical Vein Endothelial Cells (HUVECs) were purchased from Lonza (C2519AS) and cultured in EGM™2-Bulletkit™ medium (CC-3156 & CC-4176, Lonza). For VEGF-A- or BMP9-induced signaling response in HUVECs, cells (70% confluent) were treated with Palbociclib (3 mg/ml, CDK4/6i) for 12 h in EGM-2 medium prior to starvation overnight in EMB-2 media (CC-3162 Lonza) supplemented with 0.1% FBS and Palbociclib (3 mg/ml). Cells were stimulated with either VEGF-A (25 ng/ml for 15 min) or BMP9 (1 ng/ml for 2 h) and harvested for Western Blot analysis.
Cells were lysed in RIPA buffer (Abcam, ab206996) and equal amounts of proteins were separated on 4-15% gradient Criterion precast gels (Bio-Rad 567-1084). Proteins were then transferred onto nitrocellulose membranes (Bio-Rad). Western Blots were developed with chemiluminescence HRP substrate (Radiance plus, Azure Biosystems AC2103) on a digital image analyzer, Azure Imager c300.
[4] abbreviates: tamoxifen P3, Palbociclib P4, P5.

Each structure is given as a SMILES string. “Also recorded” adds a separate entry of the source.

Take `CC(=O)c1c(C)c2cnc(Nc3ccc(N4CCNCC4)cn3)nc2n(C2CCCC2)c1=O` [Palbociclib, 6-acetyl-8-cyclopentyl-5-methyl-2-[5-(1-piperazinyl)pyridine-2-ylamino]pyrido[2,3-d]pyrimidin-7(8H)-one]: the “EC proliferation assessed by EdU uptake” value in test [1] was “inhibit EC proliferation”. For the same compound, the “pAKT activation induced by VEGF-A in Alk1 silenced HUVECs” value with VEGF-A signaling is on record as “did not detect any differences”. For the same compound, in test [2] (Alk1^iECKO mice, Palbociclib alone, vs untreated), the “AV shunt number per retina (FLT1 experiment)” value was “developed less AV shunts”. The “AV shunt number per retina with FLT1 blocking antibodies” value in test [2] (Alk1^iECKO mice, Palbociclib plus i.p. FLT1 blocking antibodies (1.6 mg/kg)) is given as “numerous AV shunts, comparable to untreated”. For the same compound, in test [2] (setting [4]), the “vascular density at the front of the retinal vascular plexi” value was “prevented the formation of hyperdense and disorganized vascular networks”; the vascular progression result is on record as “normalized vascular progression”. For the same compound, in test [2] (tamoxifen P3, Palbociclib oral gavage P4, retina at P5, vs untreated Alk1EC^iKO), the “number of AVMs (AV shunts) per retina” value is given as “significantly lower number of AVMs; also recorded: prevented the development of arterio-venous malformations”. The Rb phosphorylation result in test [3] is “induced hypo-phosphorylation of the Retinoblastoma protein (Rb)”.
